Measured values: patent US9902713B2, “Neuroprotective compounds and use thereof” (BOARD OF REGENTS OF THE UNIVERSITY OF TEXAS SYSTEM, priority 2013, dated 2018)
Entries after “also recorded” stand apart in the source; their conditions may differ.

Columns and labels:
[1] = tested on: newborn hippocampal neurons; test: In vivo neuroprotection assay: BrdU+ newborn hippocampal neurons; set-up: species or system mice
Description: Results. Our most robust assay involves monitoring neuroprotection of newborn hippocampal neurons in mice because this assay gives a simultaneous readout of efficacy, acute toxicity and cell permeability. For this reason, all analogs of P7C3 were evaluated initially by infusing them directly into the left lateral ventricle of environmentally-deprived^ix live mice using a subcutaneously implanted osmotic minipump. Compounds were delivered intracerebroventricularly (ICV) over a 7 day period at a concentration of 10 μM (12 μL/d).^x Coincident with ICV administration of drug, mice were dosed daily with the thymidine analog bromodeoxyuridine (BrdU, IP, 50 mg/kg) to mark newly born hippocampal neural precursor cells. At the end of the 1 week dosing, animals were sacrificed and transcardially perfused. Brain slices were stained with antibodies to BrdU, and the number of surviving neural precursor cells was quantified by counting the number of BrdU+ cells in the hippocampal dentate gyrus. To avoid complications arising from the surgical implantation of the pump, we quantified neurogenesis in the hemisphere opposite to compound infusion. Finally, to obtain consistent data across many animals, the number of BrdU+ cells was normalized to the volume of the dentate gyrus.
In Vivo Neuroprotection Assay. Test compounds were evaluated as described previously.^2 Compounds were infused intracerebroventricularly (i.c.v.) into the left lateral ventricle of four adult (12 week old) wild-type C57BL/J6 mice by means of surgically implanted Alzet osmotic minipumps that delivered solution into animals at a constant rate of 0.5 μl/hour for 7 days. Alternatively, compounds were administered intraperitoneally twice daily. Bromodeoxyuridine (BrdU) was injected intraperitoneally at 50 mg/kg/day for six days during pump infusion. Twenty-four hours after the final BrdU administration, mice were sacrificed by transcardial perfusion with 4% paraformaldehyde at pH 7.4, and their brains were processed for immunohistochemical detection of incorporated BrdU in the SGZ. Dissected brains were immersed in 4% paraformaldehyde overnight at 4° C., then cryoprotected in sucrose before being sectioned into 40 μm thick free-floating sections. Unmasking of BrdU antigen was achieved through incubating tissue sections for two hours in 50% formamide/2×SSC at 65° C., followed by a five minute wash in 2×SSC and subsequent incubation for thirty minutes in 2M HCl at 37° C. Sections were processed for immunohistochemical staining with mouse monoclonal anti-BrdU (1:100). The number of BrdU+ cells in the entire dentate gyrus SGZ in the contralateral hemisphere (opposite side of surgically implanted pump) was quantified by counting BrdU+ cells within the SGZ and dentate gyrus in every fifth section throughout the entire hippocampus and then normalizing for dentate gyrus volume.

[2] = Long-term treatment: weight, behavior, appearance
[3] = tested on: cultured hippocampal neurons; test: MPP+ toxicity in cultured neurons (MTT); type: cell-based; settings: 10 μM compound, 10 μM MPP+, 24 hrs
Description: FIGS. 35A-35B show P7C3-S243 and P7C3-A20 protect cultured hippocampal and cortical neurons from MPP^+ toxicity. […] Experiments were performed 2 independent times with 8-12 replicates of each sample both times.

6-OHDA-exposed rats = test: 6-OHDA rat model of Parkinson's disease; type: in vivo
Description: (FIG. 34A) Schematic of the experimental design illustrates that rats received a unilateral stereotactic injection of 6-OHDA or saline in the medial forebrain bundle (MFB), followed by daily injection of P7C3-S243 for 7 days. Open field and cylinder tests were performed 8-10 days after 6-OHDA injection, and the amphetamine circling test was conducted on day 11. Rats were transcardially perfused on day 14, and brain tissue was processed for neurochemistry and immunohistochemistry analysis. […] Scale bars=250 μm. […] No difference was found in the concentration of serotonin in all groups (one-way ANOVA). For all experiments in FIG. 34, n=10 per group except for the HPLC analysis, for which n=7.
FIGS. 36A-36F show pretreatment with P7C3-A20 or P7C3-S243 (10 mg/kg/day) protects rats from 6-OHDA toxicity. (FIG. 36A) Schematic of the experimental design illustrates that rats were pretreated for 3 days with either P7C3-A20 or P7C3-S243, and then administered either 6-OHDA or saline by stereotactic injection in the medial forebrain bundle (MFB), followed by 7 more days of treatment with either P7C3-A20 or P7C3-S243. Open field and cylinder tests were performed between days 8-10, and the amphetamine circling test was performed on day 11. Rats were transcardially perfused on day 14, and brain tissue was processed for neurochemistry and immunohistochemistry analysis. […] Scale bars=250 μm.
FIGS. 37A-37B show treatment of 6-OHDA-exposed rats with P7C3-S243 preserves both TH and NeuN staining, illustrating that TH staining corresponds to neuronal survival. […] DAPI was used as a nuclear marker.

[4] = Metabolic stability in hepatocytes; type: in vitro ADME; settings: murine hepatocytes
Description: The pharmacokinetic and toxicity profiles of P7C3-S243 were evaluated using both in vivo and in vitro methods. Having observed near complete metabolic stability in the presence of murine hepatocytes (T1/2>240 min), we monitored plasma and brain levels of the compound following IV, oral and IP dosing.

in vivo = settings: mouse; for Kp: brain and plasma
degenerating axons = test: Silver staining of degenerating axons after blast-mediated TBI
Description: Optical densitometry of silver-stained tissue was used to quantify the magnitude of staining, such that greater impedance of light through the section reflected greater axonal degeneration (FIG. 18B).
All brains were stored in a freezer at −80° C. before sectioning. […] Every 1st-12th sections of each series of 12 sections (interval: 480 μm) were collected separately. All sections were stored free-floating in FD sections storage solution (FD Neurotechnologies, Columbia, Md.) at −20° C. before further processing.
For silver staining, sections were collected in 0.1 M phosphate buffer (pH 7.4) containing 4% paraformaldehyde and fixed for 5 days at 4° C. Sections were then processed for the detection of neurodegeneration with FD NeuroSilver Kit II (FD Neurotechnologies) according to the manufacturer's instructions (for detailed procedures, cf. the manual of PK301, available at www.fdneurotech.com). Subsequently, all sections were mounted on slides, dehydrated in ethanol, cleared in xylene, and coverslipped with Permount (Fisher Scientific, Fair Lawn, N.J.).
The microscope light intensity and camera exposure were held constant. The operator outlined areas of interest around specific brain regions and recorded the intensity of light passing through the slide. Degenerating axons allowed less light to pass through the section due to their uptake of silver stain, so lower light intensity correlated with increased degeneration. Operator performing quantification was blinded to condition and treatment.

[5] = biological target: (Homo sapiens, UniProt P10635); test: Cytochrome P450 inhibition; type: in vitro ADME; settings: 3D6
H2009 = test: Toxicity towards human cancer cell line; type: cell-based; settings: NCI-H2009
[6] = tested on: newborn hippocampal neurons; settings: previously reported; cited from earlier work
[7] = tested on: cerebral cortical neurons; settings: previously reported; cited from earlier work
[8] = tested on: motor neurons in the spinal cord; settings: previously reported; cited from earlier work
[9] = 10 mg/kg/day, 7 days after 6-OHDA
[10] = 10 mg/kg/day, pretreated 3 days plus 7 more days
[11] = single enantiomers, 3 mg/kg/day

Sequence of (Homo sapiens, UniProt P10635) (P10635 whole entry): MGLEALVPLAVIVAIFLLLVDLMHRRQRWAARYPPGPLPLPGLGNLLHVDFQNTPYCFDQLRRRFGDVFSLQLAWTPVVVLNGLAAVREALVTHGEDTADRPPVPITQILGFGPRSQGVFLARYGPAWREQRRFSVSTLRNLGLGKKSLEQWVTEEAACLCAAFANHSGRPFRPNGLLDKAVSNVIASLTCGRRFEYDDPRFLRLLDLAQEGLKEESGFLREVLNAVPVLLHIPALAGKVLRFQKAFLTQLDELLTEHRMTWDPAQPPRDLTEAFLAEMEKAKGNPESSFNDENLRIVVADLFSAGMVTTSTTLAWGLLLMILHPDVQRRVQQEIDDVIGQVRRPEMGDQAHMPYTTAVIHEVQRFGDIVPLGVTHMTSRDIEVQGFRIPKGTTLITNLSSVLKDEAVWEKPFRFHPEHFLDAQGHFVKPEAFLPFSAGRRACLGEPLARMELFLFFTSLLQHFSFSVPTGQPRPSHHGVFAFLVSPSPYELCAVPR

With `COc1cccc(NCC(F)Cn2c3ccc(Br)cc3c3cc(Br)ccc32)n1` (racemic) [P7C3-S243, N-(3-(3,6-dibromo-9H-carbazol-9-yl)-2-fluoropropyl)-6-methoxypyridin-2-amine] as the molecule, how does the “activity relative to P7C3 and P7C3-A20” value ([1]; ICV, 1 week, FIG. 1) read?
Its value is “superior to P7C3 and comparable to P7C3-A20”.

And the “number of surviving newborn hippocampal neurons” value ([1]; ICV, 1 week, FIG. 1)?
Its value is “approximately doubled”.

And the “dose at ceiling of efficacy” value ([1]; administered intraperitoneally)?
Its value is 10 mg/kg/day.

What about the “dose at which active” value ([1]; administered intraperitoneally) of the same molecule?
Its value is 1 mg/kg/day.

What about the “impact on weight, behavior or appearance” value ([2]; up to 10 mg/kg/d for 21 d) of the same molecule?
Its value is “no negative impact”.

And the “protection (MTT)” value [3]?
The value was “significant protection”.

And the “TH and NeuN immunofluorescence of the SNc” value (6-OHDA-exposed rats; 10 mg/kg/day for 7 days)?
The value was “preservation of co-localized tyrosine hydroxylase (TH) and NeuN”.

And the “TH-positive cells compared to 6-OHDA-Vehicle group” value (6-OHDA-exposed rats; [9])?
Its value is “significant increase”.

And the “ipsilateral rotations (amphetamine-circling) of 6-OHDA+vehicle animals compared to 6-OHDA+compound animals” value (6-OHDA-exposed rats; [9])?
Its value is “significant increase”.

And the “total distance traveled (open field) of 6-OHDA+vehicle animals compared to 6-OHDA+compound animals” value (6-OHDA-exposed rats; [9])?
Its value is “significant decrease”.

What about the “total rearings (cylinder test) of 6-OHDA+vehicle animals compared to 6-OHDA+compound animals” value (6-OHDA-exposed rats; [9]) of the same molecule?
The value was “significant decrease”.

And the “striatal concentration of dopamine, DOPAC, and homovanillic acid compared to 6-OHDA-Vehicle group” value (6-OHDA-exposed rats; 10 mg/kg/day, 7 days after 6-OHDA, HPLC)?
Its value is “significant increase”.

And the “TH-positive cells compared to 6-OHDA-Vehicle group” value (6-OHDA-exposed rats; [10])?
Its value is “significant increase”.

And the “ipsilateral rotations (amphetamine-circling) of 6-OHDA+vehicle animals compared to 6-OHDA+compound animals” value (6-OHDA-exposed rats; [10])?
Its value is “significant increase”.

What about the “total distance traveled (open field) of 6-OHDA+vehicle animals compared to 6-OHDA+compound animals” value (6-OHDA-exposed rats; [10]) of the same molecule?
The value was “significant decrease”.

And the “total rearings (cylinder test) of 6-OHDA+vehicle animals compared to 6-OHDA+compound animals” value (6-OHDA-exposed rats; [10])?
Its value is “significant decrease”.

And the T1/2 [4]?
The T1/2 was greater than 240 min.

What about the Kp (in vivo; ip, 10 mg/kg) of the same molecule?
The Kp was 0.45.

And the Kp (in vivo; ip, 20 mg/kg)?
The Kp was 0.28.

What about the Kp (in vivo; iv, 10 mg/kg) of the same molecule?
Its Kp is 1.1.

And the Kp (in vivo; po, 20 mg/kg)?
Its Kp is 0.81.

And the bioavailability (in vivo; brain, po, 20 mg/kg)?
Its bioavailability is 58%.

What about the bioavailability (in vivo; plasma, ip, 20 mg/kg) of the same molecule?
The bioavailability was 90%.

What about the bioavailability (in vivo; plasma, po, 20 mg/kg) of the same molecule?
Its bioavailability is 38%.

What about the “axonal degeneration, cerebellar molecular layer” value (degenerating axons; 0.3 mg/kg/day) of the same molecule?
The value was “Extensive axonal degeneration”.

And the “silver staining in CA1, corpus callosum, thalamus, cortex, olfactory bulb, striatum, dentate gyrus, cerebellum” value (degenerating axons; 0.3 mg/kg/day)?
Its value is “prominent silver staining of degenerating axons”.

And the “axonal degeneration, cerebellar molecular layer” value (degenerating axons; 3 and 30 mg/kg/day)?
Its value is “blocked”.

And the “axonal degeneration, CA1 stratum radiatum” value (degenerating axons; 3 and 30 mg/kg/day from 24 hours after injury)?
Its value is “blocked”.

And the “axonal and cellular degeneration, thalamus, cortex, CA1” value (degenerating axons; 14 days after injury, treatment from 24 hours, FIG. 7)?
Its value is “ameliorated”.

For `COc1cccc(NCC(F)Cn2c3ccc(Br)cc3c3cc(Br)ccc32)n1` (single isomer, unassigned; (-)) [(−)-P7C3-S243, (−)-N-(3-(3,6-dibromo-9H-carbazol-9-yl)-2-fluoropropyl)-6-methoxypyridin-2-amine], which “neuroprotective activity of pure enantiomers” value ([1]; ICV 0.5 μL/h, 7 days, FIG. 2) is on record?
Its value is “highly active; also recorded: high activity”.

And the “sensitivity of cytochrome P450” value [5]?
The value was “insensitive”.

And the IC50 (H2009)?
Its IC50 is greater than 10 µM.

What about the “axonal degeneration, CA1 stratum radiatum” value (degenerating axons; [11]) of the same molecule?
Its value is “complete protection from axonal degeneration”.

And the “axonal degeneration, cerebellar molecular layer” value (degenerating axons; [11])?
The value was “blocked”.

And the “silver staining in CA1, corpus callosum, thalamus, cortex, olfactory bulb, striatum, dentate gyrus, cerebellum” value (degenerating axons; [11])?
Its value is “protected from axonal degeneration”.

Which results are given for `COc1cccc(NCC(F)Cn2c3ccc(Br)cc3c3cc(Br)ccc32)c1` (centres unmarked) [P7C3-A20, N-(3-(3,6-dibromo-9H-carbazol-9-yl)-2-fluoropropyl)-3-methoxyaniline]?
activity in the in vivo hippocampal neuroprotection assay (previous studies) [6]: substantially improved activity; protection of cerebral cortical neurons [7]: protect rat cerebral cortical neurons; impact on weight, behavior or appearance ([2]; up to 40 mg/kg/d for 21 d): no negative impact; protection (MTT) [3]: significant protection; TH-positive cells compared to 6-OHDA-Vehicle group (6-OHDA-exposed rats; [10]): significant increase; ipsilateral rotations (amphetamine-circling) of 6-OHDA+vehicle animals compared to 6-OHDA+compound animals (6-OHDA-exposed rats; [10]): significant increase; total distance traveled (open field) of 6-OHDA+vehicle animals compared to 6-OHDA+compound animals (6-OHDA-exposed rats; [10]): significant decrease; total rearings (cylinder test) of 6-OHDA+vehicle animals compared to 6-OHDA+compound animals (6-OHDA-exposed rats; [10]): significant decrease; motor neuron cell death in the spinal cord [8]: minimize motor neuron cell death
